From ChEMBL document CHEMBL5212743, “Selectivity Literature for EUbOPEN Chemogenomics Library wave 3” (2023)

Tests used:
[1] = target: Phosphatidylinositol 4,5-bisphosphate 3-kinase catalytic subunit gamma isoform (Homo sapiens, UniProt P48736); experiment: Selectivity interaction (KinomeScan (DiscoverX)) EUB0000178b PIK3CG; details: at 1 µM
[2] = target: Vascular endothelial growth factor receptor 3 (Homo sapiens) (UniProt P35916); experiment: Selectivity interaction (KinomeScan (DiscoverX)) EUB0000698a FLT4; details: at 10 µM
[3] = target: T1, Ephrin type-B receptor 6 (Homo sapiens) (UniProt O15197); experiment: Selectivity interaction (KinomeScan (DiscoverX)) EUB0000698a EPHB6; details: at 10 µM
T1 sequence (whole entry): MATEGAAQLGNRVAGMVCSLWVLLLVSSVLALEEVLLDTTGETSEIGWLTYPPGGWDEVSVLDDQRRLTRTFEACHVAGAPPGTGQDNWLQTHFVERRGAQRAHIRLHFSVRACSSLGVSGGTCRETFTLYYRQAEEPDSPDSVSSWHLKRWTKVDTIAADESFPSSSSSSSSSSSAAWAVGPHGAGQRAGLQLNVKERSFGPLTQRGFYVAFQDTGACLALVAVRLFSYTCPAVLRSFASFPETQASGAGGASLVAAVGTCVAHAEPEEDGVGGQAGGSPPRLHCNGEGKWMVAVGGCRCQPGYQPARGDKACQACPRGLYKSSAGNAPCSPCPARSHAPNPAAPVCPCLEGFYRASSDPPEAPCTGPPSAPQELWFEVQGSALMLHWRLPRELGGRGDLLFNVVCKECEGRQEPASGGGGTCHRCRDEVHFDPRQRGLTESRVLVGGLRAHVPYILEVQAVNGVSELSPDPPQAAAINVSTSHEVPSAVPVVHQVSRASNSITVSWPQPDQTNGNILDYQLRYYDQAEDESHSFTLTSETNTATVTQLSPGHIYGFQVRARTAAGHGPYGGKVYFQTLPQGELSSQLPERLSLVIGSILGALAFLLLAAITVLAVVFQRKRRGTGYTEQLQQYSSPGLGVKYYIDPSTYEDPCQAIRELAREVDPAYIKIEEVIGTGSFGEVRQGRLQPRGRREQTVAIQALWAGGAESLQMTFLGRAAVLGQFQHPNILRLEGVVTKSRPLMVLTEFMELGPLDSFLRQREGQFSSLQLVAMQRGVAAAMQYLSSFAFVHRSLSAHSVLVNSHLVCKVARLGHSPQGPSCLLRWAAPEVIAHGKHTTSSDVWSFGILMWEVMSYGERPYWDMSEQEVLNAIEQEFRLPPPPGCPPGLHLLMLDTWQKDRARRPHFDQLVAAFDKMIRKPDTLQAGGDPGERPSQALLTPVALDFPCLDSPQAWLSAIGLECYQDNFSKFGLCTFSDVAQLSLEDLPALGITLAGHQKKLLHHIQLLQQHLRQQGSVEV

[4] = target: Mast/stem cell growth factor receptor Kit (Homo sapiens, UniProt P10721); details: at 1 µM
[5] = target: Cyclin-dependent kinase 8 (Homo sapiens) (UniProt P49336); details: at 1 µM
[6] = target: Cyclin-dependent kinase 19 (Homo sapiens) (UniProt Q9BWU1); details: at 1 µM
Chain of Cyclin-dependent kinase 19 (Homo sapiens) (Q9BWU1 whole entry): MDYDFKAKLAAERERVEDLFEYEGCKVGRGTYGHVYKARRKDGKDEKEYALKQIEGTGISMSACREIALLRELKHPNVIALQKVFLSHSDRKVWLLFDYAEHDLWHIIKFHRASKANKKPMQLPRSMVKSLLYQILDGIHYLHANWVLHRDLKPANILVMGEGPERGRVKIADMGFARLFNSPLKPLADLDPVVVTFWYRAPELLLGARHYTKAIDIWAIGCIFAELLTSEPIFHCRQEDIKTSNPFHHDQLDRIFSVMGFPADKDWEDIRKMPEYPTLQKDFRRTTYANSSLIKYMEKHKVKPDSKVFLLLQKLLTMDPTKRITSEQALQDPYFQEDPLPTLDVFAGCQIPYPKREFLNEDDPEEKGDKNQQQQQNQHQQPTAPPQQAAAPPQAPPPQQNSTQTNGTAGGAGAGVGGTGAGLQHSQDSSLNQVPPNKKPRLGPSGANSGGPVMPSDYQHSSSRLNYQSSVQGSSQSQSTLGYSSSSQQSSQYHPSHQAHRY

[7] = target: Tyrosine-protein kinase FRK (Homo sapiens, UniProt P42685); details: at 1 µM
Chain of Tyrosine-protein kinase FRK (P42685 whole entry): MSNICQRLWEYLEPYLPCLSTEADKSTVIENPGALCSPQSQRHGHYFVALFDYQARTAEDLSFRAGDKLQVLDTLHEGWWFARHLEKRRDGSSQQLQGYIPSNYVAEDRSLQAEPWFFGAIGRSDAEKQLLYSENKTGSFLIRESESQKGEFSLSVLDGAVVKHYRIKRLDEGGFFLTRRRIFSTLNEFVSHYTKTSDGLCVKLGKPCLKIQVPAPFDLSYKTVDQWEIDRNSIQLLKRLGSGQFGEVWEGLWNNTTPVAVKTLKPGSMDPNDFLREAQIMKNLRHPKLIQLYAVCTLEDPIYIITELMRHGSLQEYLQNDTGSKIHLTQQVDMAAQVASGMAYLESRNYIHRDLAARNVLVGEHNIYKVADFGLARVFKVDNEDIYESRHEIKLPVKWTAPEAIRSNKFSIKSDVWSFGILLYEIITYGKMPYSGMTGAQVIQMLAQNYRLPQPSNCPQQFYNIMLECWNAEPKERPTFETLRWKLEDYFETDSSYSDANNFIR

[8] = target: T2, Dual specificity mitogen-activated protein kinase kinase 5 (Homo sapiens) (UniProt Q13163); details: at 1 µM
T2 sequence (whole entry): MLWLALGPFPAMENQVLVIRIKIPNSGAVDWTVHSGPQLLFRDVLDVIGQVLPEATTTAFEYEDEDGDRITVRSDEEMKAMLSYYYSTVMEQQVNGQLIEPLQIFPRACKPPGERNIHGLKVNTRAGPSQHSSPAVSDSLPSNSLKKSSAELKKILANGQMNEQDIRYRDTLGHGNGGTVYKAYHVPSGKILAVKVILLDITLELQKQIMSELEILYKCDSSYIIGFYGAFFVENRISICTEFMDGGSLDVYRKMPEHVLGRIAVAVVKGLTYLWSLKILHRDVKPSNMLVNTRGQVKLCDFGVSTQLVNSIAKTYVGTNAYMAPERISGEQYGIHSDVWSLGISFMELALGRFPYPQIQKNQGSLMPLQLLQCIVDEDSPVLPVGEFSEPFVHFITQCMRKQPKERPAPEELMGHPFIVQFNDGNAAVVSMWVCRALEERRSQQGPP

[9] = target: Tyrosine-protein kinase Fer (Homo sapiens, UniProt P16591); details: at 1 µM
Chain of Tyrosine-protein kinase Fer (P16591 whole entry, looked up): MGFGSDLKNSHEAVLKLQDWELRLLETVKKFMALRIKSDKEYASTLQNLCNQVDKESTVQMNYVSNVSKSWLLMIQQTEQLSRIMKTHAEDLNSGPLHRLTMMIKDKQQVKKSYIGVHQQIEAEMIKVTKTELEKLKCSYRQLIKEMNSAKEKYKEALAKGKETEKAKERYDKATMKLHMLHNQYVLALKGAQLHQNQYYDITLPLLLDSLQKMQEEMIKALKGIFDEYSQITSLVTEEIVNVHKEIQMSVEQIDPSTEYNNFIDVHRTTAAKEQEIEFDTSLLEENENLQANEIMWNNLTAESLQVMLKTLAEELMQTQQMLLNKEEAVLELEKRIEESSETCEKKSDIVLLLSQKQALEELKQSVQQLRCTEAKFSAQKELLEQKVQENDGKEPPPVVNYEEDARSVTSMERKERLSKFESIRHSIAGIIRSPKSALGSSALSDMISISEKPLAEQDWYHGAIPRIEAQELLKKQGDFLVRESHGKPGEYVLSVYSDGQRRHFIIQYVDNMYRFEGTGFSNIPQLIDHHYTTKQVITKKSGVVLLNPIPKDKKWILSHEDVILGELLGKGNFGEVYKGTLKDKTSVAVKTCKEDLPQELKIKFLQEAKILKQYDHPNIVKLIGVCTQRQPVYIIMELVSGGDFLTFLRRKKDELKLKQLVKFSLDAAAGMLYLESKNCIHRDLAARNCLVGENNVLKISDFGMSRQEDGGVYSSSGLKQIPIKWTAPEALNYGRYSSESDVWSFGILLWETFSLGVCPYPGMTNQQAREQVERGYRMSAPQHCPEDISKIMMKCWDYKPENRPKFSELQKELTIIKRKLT

[10] = target: Serine/threonine-protein kinase 16 (Homo sapiens, UniProt O75716); experiment: Selectivity interaction (KinomeScan (DiscoverX)) EUB0000702a STK16; details: at 1 µM
Chain of Serine/threonine-protein kinase 16 (O75716 whole entry): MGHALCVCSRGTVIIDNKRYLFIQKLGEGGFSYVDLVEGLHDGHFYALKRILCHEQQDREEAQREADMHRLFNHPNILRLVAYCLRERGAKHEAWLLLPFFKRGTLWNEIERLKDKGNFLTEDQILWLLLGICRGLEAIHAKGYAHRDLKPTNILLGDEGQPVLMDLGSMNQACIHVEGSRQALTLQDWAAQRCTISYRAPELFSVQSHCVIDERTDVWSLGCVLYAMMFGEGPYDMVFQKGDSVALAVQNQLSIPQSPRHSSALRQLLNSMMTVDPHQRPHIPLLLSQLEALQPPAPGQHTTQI

[11] = target: NUAK family SNF1-like kinase 2 (Homo sapiens) (UniProt Q9H093); experiment: Selectivity interaction (KinomeScan (DiscoverX)) EUB0000702a NUAK2; details: at 1 µM
[12] = system: Leucine-rich repeat serine/threonine-protein kinase 2 (Homo sapiens), Q5S007 [G2019S]; experiment: Selectivity interaction (KinomeScan (DiscoverX)) EUB0000702a LRRK2; details: at 1 µM
Chain of Leucine-rich repeat serine/threonine-protein kinase 2 (Homo sapiens), Q5S007 [G2019S] (Q5S007 whole entry G2019S): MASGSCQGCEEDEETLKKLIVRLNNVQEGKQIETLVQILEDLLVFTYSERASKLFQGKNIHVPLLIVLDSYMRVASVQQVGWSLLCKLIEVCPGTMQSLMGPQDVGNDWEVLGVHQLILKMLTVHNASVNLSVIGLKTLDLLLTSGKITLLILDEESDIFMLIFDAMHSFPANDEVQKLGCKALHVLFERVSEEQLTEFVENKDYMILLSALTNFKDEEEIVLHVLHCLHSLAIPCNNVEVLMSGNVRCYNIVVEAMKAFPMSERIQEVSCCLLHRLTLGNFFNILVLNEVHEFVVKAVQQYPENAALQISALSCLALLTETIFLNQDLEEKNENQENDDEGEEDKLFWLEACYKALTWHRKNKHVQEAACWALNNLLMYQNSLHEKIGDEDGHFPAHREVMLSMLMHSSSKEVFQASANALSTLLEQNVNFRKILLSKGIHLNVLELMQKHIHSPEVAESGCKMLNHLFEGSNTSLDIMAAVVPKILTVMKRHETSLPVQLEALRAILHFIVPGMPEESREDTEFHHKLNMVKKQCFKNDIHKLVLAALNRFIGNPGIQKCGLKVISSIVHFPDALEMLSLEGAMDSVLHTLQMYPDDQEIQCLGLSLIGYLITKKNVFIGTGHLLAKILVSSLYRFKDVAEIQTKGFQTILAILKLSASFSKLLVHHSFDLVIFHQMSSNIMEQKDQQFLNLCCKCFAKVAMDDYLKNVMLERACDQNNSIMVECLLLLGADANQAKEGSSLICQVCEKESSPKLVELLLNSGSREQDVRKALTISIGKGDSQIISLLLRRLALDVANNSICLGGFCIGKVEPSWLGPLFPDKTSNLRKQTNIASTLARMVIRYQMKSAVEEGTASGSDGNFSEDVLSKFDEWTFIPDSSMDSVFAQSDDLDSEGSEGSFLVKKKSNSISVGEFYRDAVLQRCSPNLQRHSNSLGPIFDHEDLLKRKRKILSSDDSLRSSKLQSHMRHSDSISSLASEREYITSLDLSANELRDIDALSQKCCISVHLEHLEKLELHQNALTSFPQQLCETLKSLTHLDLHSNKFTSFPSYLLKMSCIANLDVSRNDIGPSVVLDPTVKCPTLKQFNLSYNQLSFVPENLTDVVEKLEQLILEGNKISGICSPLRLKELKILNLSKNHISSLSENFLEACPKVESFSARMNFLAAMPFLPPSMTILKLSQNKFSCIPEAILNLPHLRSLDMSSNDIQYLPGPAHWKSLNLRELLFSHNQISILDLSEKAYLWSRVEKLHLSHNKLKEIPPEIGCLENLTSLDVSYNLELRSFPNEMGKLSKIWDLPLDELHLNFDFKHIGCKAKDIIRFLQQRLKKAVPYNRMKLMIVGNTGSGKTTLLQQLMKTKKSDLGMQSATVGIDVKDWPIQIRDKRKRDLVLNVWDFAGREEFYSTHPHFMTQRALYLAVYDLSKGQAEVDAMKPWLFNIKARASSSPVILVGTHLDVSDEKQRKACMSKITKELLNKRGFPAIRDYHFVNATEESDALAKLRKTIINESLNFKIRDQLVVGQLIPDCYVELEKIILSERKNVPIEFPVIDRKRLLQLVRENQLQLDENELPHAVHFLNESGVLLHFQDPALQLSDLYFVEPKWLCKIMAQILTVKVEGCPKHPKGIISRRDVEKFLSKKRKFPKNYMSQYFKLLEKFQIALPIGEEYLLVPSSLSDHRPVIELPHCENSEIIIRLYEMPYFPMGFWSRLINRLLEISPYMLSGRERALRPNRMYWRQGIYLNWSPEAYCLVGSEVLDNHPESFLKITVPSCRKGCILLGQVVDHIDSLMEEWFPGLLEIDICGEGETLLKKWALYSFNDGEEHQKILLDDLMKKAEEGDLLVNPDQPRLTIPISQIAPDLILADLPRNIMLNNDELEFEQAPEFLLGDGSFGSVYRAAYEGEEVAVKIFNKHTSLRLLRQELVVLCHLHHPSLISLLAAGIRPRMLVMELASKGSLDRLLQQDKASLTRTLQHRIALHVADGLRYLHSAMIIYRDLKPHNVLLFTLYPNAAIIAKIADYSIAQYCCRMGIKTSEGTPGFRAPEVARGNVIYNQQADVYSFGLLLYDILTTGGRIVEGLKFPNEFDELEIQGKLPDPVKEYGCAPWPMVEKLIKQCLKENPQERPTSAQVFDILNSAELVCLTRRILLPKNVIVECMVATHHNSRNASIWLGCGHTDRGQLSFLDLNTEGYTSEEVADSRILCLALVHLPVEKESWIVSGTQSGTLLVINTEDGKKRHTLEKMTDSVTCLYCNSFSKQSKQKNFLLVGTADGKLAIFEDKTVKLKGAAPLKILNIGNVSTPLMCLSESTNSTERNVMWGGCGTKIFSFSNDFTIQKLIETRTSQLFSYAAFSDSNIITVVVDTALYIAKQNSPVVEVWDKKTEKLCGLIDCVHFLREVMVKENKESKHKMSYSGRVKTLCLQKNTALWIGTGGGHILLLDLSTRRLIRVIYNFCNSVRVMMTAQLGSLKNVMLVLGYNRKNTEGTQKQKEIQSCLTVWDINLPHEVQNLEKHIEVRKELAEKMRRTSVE

[13] = system: Receptor-type tyrosine-protein kinase FLT3 (Homo sapiens), P36888 [UNDEFINED MUTATION]; experiment: Selectivity interaction (KinomeScan (DiscoverX)) EUB0000702a FLT3; details: at 1 µM
[14] = target: High affinity nerve growth factor receptor (Homo sapiens, UniProt P04629); experiment: Selectivity interaction (KinomeScan (DiscoverX)) EUB0000702a NTRK1; details: at 1 µM
[15] = system: Hepatocyte growth factor receptor (Homo sapiens), P08581 [Y1235D]; experiment: Selectivity interaction (KinomeScan (DiscoverX)) EUB0000702a MET; details: at 1 µM
[16] = system: Phosphatidylinositol 4,5-bisphosphate 3-kinase catalytic subunit alpha isoform (Homo sapiens), P42336 [Q546K]; experiment: Selectivity interaction (KinomeScan (DiscoverX)) EUB0000305b PIK3CA; details: CellTiter-Glo assay (Promega, proliferation in ACHN cells): IC50 = […] nM, https://www.sgc-ffm.uni-frankfurt.de/#!specificprobeove, at 100 nM
[17] = target: Mitogen-activated protein kinase kinase kinase 19 (Homo sapiens, UniProt Q56UN5); experiment: Selectivity interaction (KinomeScan (DiscoverX, competition-binding assay)) EUB0000305b MAP3K19
[18] = target: Ribosomal protein S6 kinase alpha-1 (Homo sapiens) (UniProt Q15418); details: at 10 µM
[19] = target: RAC-alpha serine/threonine-protein kinase (Homo sapiens, UniProt P31749); experiment: Selectivity interaction (Kinase panel (University of Dundee)) EUB0000169b AKT1; details: at 10 µM
[20] = target: Casein kinase II subunit alpha (Homo sapiens, UniProt P68400); experiment: Selectivity interaction (Kinase panel (University of Dundee)) EUB0000169b CSNK2A1; details: at 10 µM
Chain of Casein kinase II subunit alpha (P68400 whole entry, looked up): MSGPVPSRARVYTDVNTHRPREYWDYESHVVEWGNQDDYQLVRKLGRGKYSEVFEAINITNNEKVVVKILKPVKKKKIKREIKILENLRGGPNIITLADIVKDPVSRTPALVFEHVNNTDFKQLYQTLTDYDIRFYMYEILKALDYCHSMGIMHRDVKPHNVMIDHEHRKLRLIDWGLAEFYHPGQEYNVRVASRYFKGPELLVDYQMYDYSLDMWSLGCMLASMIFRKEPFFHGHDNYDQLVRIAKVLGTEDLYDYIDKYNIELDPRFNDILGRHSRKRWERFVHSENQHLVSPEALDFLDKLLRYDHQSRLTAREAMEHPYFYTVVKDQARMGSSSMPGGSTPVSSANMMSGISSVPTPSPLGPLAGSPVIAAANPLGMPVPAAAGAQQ

[21] = target: Serine/threonine-protein kinase PLK3 (Homo sapiens, UniProt Q9H4B4); experiment: Selectivity interaction (KinomeScan (DiscoverX)) EUB0000169b PLK3; details: at 1 µM

CN1C(=O)c2sccc2N(C)c2nc(Nc3ccc(S(N)(=O)=O)cc3)ncc21
% of control [1]: 0.15%

COc1cc2ncn(-c3cc(OCc4ccccc4C(F)(F)F)c(C(N)=O)s3)c2cc1OC [GW843682X]
% of control [2]: 1.4%
% of control [3]: 9.9%

CCOc1cn(-c2ccc(F)cc2C)nc1C(=O)Nc1ccc(Oc2ccnc3cc(OC)c(OC)cc23)c(F)c1
% of control [4]: < 10%
% of control [5]: < 10%
% of control [6]: < 10%
% of control [7]: < 10%
% of control [8]: < 10%
% of control [9]: < 10%

CN(c1ccnc(CNc2nc(Nc3ccc4c(c3)CC(=O)N4)ncc2C(F)(F)F)n1)S(C)(=O)=O [PF-00911705]
% of control [10]: 1.5%
% of control [11]: 7.6%
% of control [12]: 7.3%
% of control [13]: 0%
% of control [14]: 10%
% of control [15]: 10%

C[C@H](c1ccnc(Nc2nc3ccc(-c4cc(N(C)C)ncn4)cc3[nH]2)c1)N1CCN(C(=O)CC(F)(F)F)CC1 [BAY-985]
% of control [16]: 45%
Kd [17]: 9.6 nM

CC[C@@H]1C(=O)N(C)c2cnc(Nc3ccc(C(=O)NC4CCN(C)CC4)cc3OC)nc2N1C1CCCC1
% of control [18]: 13.8%
% of control [19]: 90%
% of control [20]: 103%
% of control [21]: 0.5%
